The values that follow come from patent publication US6784204B2, “Antibiotic cytosporacin” (Wyeth Holdings Corporation, Five Giralda Farms, priority 2002, dated 2004).

SMILES strings stand for the structures. In brackets after ≈: the same amount, converted by molar mass. Bounds are passed on as bounds.

What all share (experiment): MIC by broth dilution method
What all share (format): cell-based

Experiment [1] concerns Bacillus subtilis 327 (BGSC-1A1). The note with it: 18 hours at 35° C.
Experiment [2] has as its system Escherichia coli 442 (GC4559). The following applies: 18 hours at 35° C. On the procedure: (§1) The minimum inhibitory concentration (MIC), the lowest concentration of the antibiotic which inhibits growth of the test organism, is determined by the broth dilution method using Muller-Hinton II […] (Baltimore Biological Laboratories) following the recommendations of the National Committee for Clinical Laboratory Standards [Methods for dilution antimicrobial susceptibility tests for bacteria that grow aerobically. Approved standard M7-A2. National Committee for Clinical Laboratory Standards, Villanova, Pa].
(§2) An inoculum level of 5×10^5 CFU/ml, and a range of antibiotic concentrations (256-1.0 μg/ml) is used. The MIC is determined after the microtiter plates are incubated for 18 hours at 35° C. in an ambient air incubator. The test organisms comprise a spectrum of Gram-positive bacteria comprised of Staphylococcus sp., Enterococcus sp., Gram-negative bacterium Escherichia coli, and the yeast Candida albicans. These organisms include recent clinical isolates that are resistant to piperacillin and vancomycin.

In experiment [3] the test system is Staphylococcus aureus 310 (SSC8224, methicillin-resistant). The note with it: 18 hours at 35° C. On the procedure: as §1, §2
In experiment [4] the test system is Enterococcus faecium 379 (NC12204, vancomycin-resistant). The note with it: 18 hours at 35° C. On the procedure: as §1, §2
In experiment [5] the test system is Escherichia coli 389 (GC4560 imp). The note with it: 18 h. The protocol: as §1, §2
Experiment [6] concerns Staphylococcus aureus 375 (ATCC3538p). The following applies: 18 hours at 35° C. The protocol:
as §1, §2

Experiment [7] deals with Candida albicans 54 (CA300). The following applies: 18 hours at 35° C. The protocol:
as §1, §2

Experiment [8] deals with Enterococcus faecium 436 (ID3151). The following applies: 18 hours at 35° C. On the procedure:
as §1, §2

In general, MIC refers to the least concentration at which growth counts as inhibited. Read a low MIC as a more susceptible organism. On to `C=C1OC(=O)c2c(cc3c(C4=C5C=C(O)C(=O)C(O)=C5C(CCCCCCC)OC4=O)c(O)cc(O)c3c2O)C1O` (centres unmarked) [Cytosporacin], for which the minimal inhibitory concentration (MIC) was 32 µg/mL (≈ 56.7 µM) in experiment [1]; 256 µg/mL (≈ 453 µM) in experiment [2]; 32 µg/mL (≈ 56.7 µM) in experiment [3]; 64 µg/mL (≈ 113 µM) in experiment [4]; 64 µg/mL (≈ 113 µM) in experiment [5]; 32 µg/mL (≈ 56.7 µM) in experiment [6]. Besides, the MIC is greater than 256 µg/mL in experiment [7] and 16 µg/mL (≈ 28.3 µM) in experiment [8].
